# Test results: ChEMBL document CHEMBL1201862, “PubChem BioAssay data set” (2004)
#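 96-well plates; 48 h exposure; 5 concentrations. Endpoints by linear interpolation between flanking doses. Not reached: highest tested concentration assigned. Abbreviation: GI50, concentration required for 50% inhibition of growth.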 Active and inactive are the calls of the source. Cut-off read from the data, not from the text of the source: active = GI50 up to about 1.1 µM and inactive = higher.
# Legend:
# Assay in all cases: NCI-60 cell line screen, 48 h
# [1] = system: NCI-H460
# [2] = system: SK-MEL-28
# [3] = system: IGROV-1
# [4] = system: CAKI-1
# [5] = system: Malme-3M
# [6] = system: DLD-1
# [7] = system: HOP-18
# [8] = system: TK-10
# [9] = system: A498
# [10] = system: SK-MEL-2
# [11] = system: COLO 205
# [12] = system: HOP-62
# [13] = system: UO-31
# [14] = system: SNB-78
# [15] = system: KM-20L2
# [16] = system: HT-29
# [17] = system: SK-OV-3
# [18] = system: ACHN
# [19] = system: RPMI-8226
# [20] = system: DMS-273
# [21] = system: LXFL 529
# [22] = system: MOLT-4
# [23] = system: A549
# [24] = system: CCRF-CEM
# [25] = system: NCI-H522
# [26] = system: NCI-H226
# [27] = system: NCI-H23
# [28] = system: SW-620
# [29] = system: UACC-62
# [30] = system: OVCAR-5
# [31] = system: UACC-257
# [32] = system: DMS-114
# [33] = system: HCT-15
# [34] = system: KM12
# [35] = system: 786-0
# [36] = system: HCT-116
# [37] = system: SF-295
# [38] = system: SK-MEL-5
# [39] = system: SF-539
# [40] = system: RXF 393
# [41] = system: EKVX
# [42] = system: SN12C
# [43] = system: OVCAR-8
# [44] = system: SNB-75
# [45] = system: SF-268
# [46] = system: M14
# [47] = system: RXF 631
# [48] = system: K562
# [49] = system: U-251
# [50] = system: OVCAR-3
# [51] = system: OVCAR-4
# [52] = system: SNB-19
# [53] = system: XF498
# [54] = system: Hs-578T
# [55] = system: LOX IMVI
# [56] = system: BT-549
# [57] = system: HL-60
# [58] = system: NCI/ADR-RES
# [59] = system: DU-145
# [60] = system: MDA-N
# [61] = system: HOP-92
# [62] = system: HCC 2998
# [63] = system: SR
# [64] = system: M19-MEL
# [65] = system: PC-3
# [66] = system: MDA-MB-231
# [67] = system: MCF7
# [68] = system: T47D
# [69] = system: MDA-MB-435
compound,measurement,setting,value
CC1=C(/C=C/C(C)=C/C=C/C(C)=C/C=C/C=C(C)/C=C/C=C(C)/C=C/C=C(C)/C=C/C=C(\C)C(=O)O)C(C)(C)CCC1,GI50,[1],> 100 µM (inactive)
same,GI50,[2],> 100 µM (inactive)
same,GI50,[3],> 100 µM (inactive)
same,GI50,[4],> 100 µM (inactive)
same,GI50,[5],> 100 µM (inactive)
same,GI50,[6],> 100 µM (inactive)
same,GI50,[7],< 0.01 µM (active)
same,GI50,[8],> 100 µM (inactive)
same,GI50,[9],> 100 µM (inactive)
same,GI50,[10],> 100 µM (inactive)
same,GI50,[11],> 100 µM (inactive)
same,GI50,[12],> 100 µM (inactive)
same,GI50,[13],> 100 µM (inactive)
same,GI50,[14],> 100 µM (inactive)
same,GI50,[15],> 100 µM (inactive)
same,GI50,[16],> 100 µM (inactive)
same,GI50,[17],> 100 µM (inactive)
same,GI50,[18],> 100 µM (inactive)
same,GI50,[19],> 100 µM (inactive)
same,GI50,[20],> 100 µM (inactive)
same,GI50,[21],> 100 µM (inactive)
same,GI50,[22],> 100 µM (inactive)
same,GI50,[23],> 100 µM (inactive)
same,GI50,[24],> 100 µM (inactive)
same,GI50,[25],> 100 µM (inactive)
same,GI50,[26],> 100 µM (inactive)
same,GI50,[27],> 100 µM (inactive)
same,GI50,[28],> 100 µM (inactive)
same,GI50,[29],> 100 µM (inactive)
same,GI50,[30],> 100 µM (inactive)
same,GI50,[31],> 100 µM (inactive)
same,GI50,[32],> 100 µM (inactive)
same,GI50,[33],> 100 µM
same,GI50,[34],> 100 µM (inactive)
same,GI50,[35],> 100 µM (inactive)
same,GI50,[36],> 100 µM (inactive)
same,GI50,[37],> 100 µM (inactive)
same,GI50,[38],> 100 µM (inactive)
same,GI50,[39],> 100 µM (inactive)
same,GI50,[40],> 100 µM (inactive)
same,GI50,[41],> 100 µM (inactive)
same,GI50,[42],> 100 µM (inactive)
same,GI50,[43],> 100 µM (inactive)
same,GI50,[44],69 µM (inactive)
same,GI50,[45],> 100 µM (inactive)
same,GI50,[46],> 100 µM (inactive)
same,GI50,[47],> 100 µM (inactive)
same,GI50,[48],> 100 µM (inactive)
same,GI50,[49],> 100 µM (inactive)
same,GI50,[50],> 100 µM (inactive)
same,GI50,[51],> 100 µM (inactive)
same,GI50,[52],> 100 µM (inactive)
O=C(CC(=O)c1ccccc1NC1=Cc2ccccc2C(=O)C1=O)C(=O)NC1=C(Cl)C(=O)c2ccccc2C1=O,GI50,[1],3.04 µM (inactive)
same,GI50,[2],1.89 µM (inactive)
same,GI50,[3],5.79 µM (inactive)
same,GI50,[4],8.28 µM (inactive)
same,GI50,[5],1.22 µM (inactive)
same,GI50,[53],2.49 µM (inactive)
same,GI50,[6],2.38 µM (inactive)
same,GI50,[8],22.3 µM (inactive)
same,GI50,[9],14.7 µM (inactive)
same,GI50,[10],2.47 µM (inactive)
same,GI50,[11],14.8 µM (inactive)
same,GI50,[12],4.79 µM (inactive)
same,GI50,[13],6.89 µM (inactive)
same,GI50,[14],2.16 µM (inactive)
same,GI50,[54],1.9 µM (inactive)
same,GI50,[15],9.77 µM (inactive)
same,GI50,[55],1.13 µM (inactive)
same,GI50,[16],5.26 µM (inactive)
same,GI50,[17],23.3 µM (inactive)
same,GI50,[18],3.56 µM (inactive)
same,GI50,[56],3.76 µM (inactive)
same,GI50,[57],0.605 µM (active)
same,GI50,[19],1.56 µM (inactive)
same,GI50,[20],2.34 µM (inactive)
same,GI50,[58],3 µM (inactive)
same,GI50,[21],2.46 µM (inactive)
same,GI50,[22],1.24 µM (inactive)
same,GI50,[23],4.55 µM (inactive)
same,GI50,[24],2.03 µM (inactive)
same,GI50,[25],1.91 µM (inactive)
same,GI50,[59],5.71 µM (inactive)
same,GI50,[26],7.52 µM (inactive)
same,GI50,[27],1.57 µM (inactive)
same,GI50,[28],2.43 µM (inactive)
same,GI50,[29],1.85 µM (inactive)
same,GI50,[30],5.98 µM (inactive)
same,GI50,[31],2.04 µM (inactive)
same,GI50,[32],1.68 µM (inactive)
same,GI50,[60],1.75 µM (inactive)
same,GI50,[61],4.51 µM (inactive)
same,GI50,[33],1.67 µM
same,GI50,[34],4.28 µM (inactive)
same,GI50,[35],2.48 µM (inactive)
same,GI50,[36],2.31 µM (inactive)
same,GI50,[37],3.87 µM (inactive)
same,GI50,[38],0.752 µM (active)
same,GI50,[62],9.84 µM (inactive)
same,GI50,[39],4.31 µM (inactive)
same,GI50,[40],2.34 µM (inactive)
same,GI50,[41],7.98 µM (inactive)
same,GI50,[42],1.8 µM (inactive)
same,GI50,[63],1.44 µM (inactive)
same,GI50,[43],3.12 µM (inactive)
same,GI50,[64],0.225 µM (active)
same,GI50,[65],2.23 µM (inactive)
same,GI50,[44],1.69 µM (inactive)
same,GI50,[66],2.42 µM (inactive)
same,GI50,[45],2.93 µM (inactive)
same,GI50,[46],1.47 µM (inactive)
same,GI50,[47],4.37 µM (inactive)
same,GI50,[48],1.29 µM (inactive)
same,GI50,[49],3.04 µM (inactive)
same,GI50,[50],1.51 µM (inactive)
same,GI50,[51],3.36 µM (inactive)
same,GI50,[67],0.804 µM (active)
same,GI50,[68],10.9 µM (inactive)
same,GI50,[69],1.85 µM (inactive)
same,GI50,[52],5.56 µM (inactive)
